#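 Grown in 96-well plates, cells were treated for 48 hours with each compound at five concentrations. Insufficient inhibition: endpoint recorded as highest concentration tested. Here, GI50 denotes the concentration required for 50% inhibition of growth.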 The source made the active and inactive calls. Rule as the data show it: active = GI50 up to about 1.1 µM and inactive = higher.
# Key:
# Assay in all cases: DTP human tumour cell line panel, 48 h
# [1] = system: DU-145
# [2] = system: SN12C
# [3] = system: SNB-75
# [4] = system: IGROV-1
# [5] = system: NCI-H460
# [6] = system: RXF 393
# [7] = system: HOP-62
# [8] = system: HT-29
# [9] = system: OVCAR-5
# [10] = system: MDA-N
# [11] = system: A549
# [12] = system: COLO 205
# [13] = system: T47D
# [14] = system: PC-3
# [15] = system: U-251
# [16] = system: SK-MEL-2
# [17] = system: EKVX
SMILES,GI50 [1],GI50 [2],GI50 [3],GI50 [4],GI50 [5],GI50 [6],GI50 [7],GI50 [8],GI50 [9],GI50 [10],GI50 [11],GI50 [12],GI50 [13],GI50 [14],GI50 [15],GI50 [16],GI50 [17]
COC1=C(N2CC2)C(=O)c2nc3n(c2C1=O)CCC3,0.372 µM (active),1.3 µM (inactive),1.71 µM (inactive),1.43 µM (inactive),0.45 µM (active),0.0743 µM (active),0.953 µM (active),0.352 µM (active),1.26 µM (inactive),1.38 µM (inactive),1.98 µM (inactive),0.656 µM (active),1.79 µM (inactive),0.695 µM (active),1.4 µM (inactive),,
COc1ccc(OC)c2c(C)ccnc12,24.1 µM (inactive),22.1 µM (inactive),33.1 µM (inactive),10.7 µM (inactive),21.7 µM (inactive),16.1 µM (inactive),9.75 µM (inactive),17.1 µM (inactive),46.1 µM (inactive),26.3 µM (inactive),21.4 µM (inactive),39.5 µM (inactive),22.5 µM (inactive),20.3 µM (inactive),16.4 µM (inactive),22.8 µM (inactive),14.3 µM (inactive)
COc1cc2c(c3c1c(=O)c1ccccc1n3C)C=CC1(CCCCC1)O2,> 9.1 µM (inactive),6.28 µM (inactive),1.29 µM (inactive),2.15 µM (inactive),3.82 µM (inactive),0.822 µM (active),2.3 µM (inactive),2.61 µM (inactive),5.73 µM (inactive),2.96 µM (inactive),0.446 µM (active),4.34 µM (inactive),4.41 µM (inactive),3.78 µM (inactive),4.03 µM (inactive),3.35 µM (inactive),> 7.94 µM (inactive)
COc1cc(S(=O)(=O)Nc2nc(-c3ccc(N4C(=O)C(CC(=O)O)SC4c4cccs4)cc3)cs2)ccc1Cl (centres undefined),43.5 µM (inactive),30.3 µM (inactive),17.2 µM (inactive),27.1 µM (inactive),> 100 µM (inactive),15.7 µM (inactive),54 µM (inactive),> 100 µM (inactive),> 100 µM (inactive),43.3 µM (inactive),> 100 µM (inactive),> 100 µM (inactive),25.9 µM (inactive),49.1 µM (inactive),42.6 µM (inactive),27.8 µM (inactive),
CC(=O)Nc1cc2ccc(=O)oc2cc1Cl,> 100 µM (inactive),> 100 µM (inactive),> 100 µM (inactive),> 100 µM (inactive),> 100 µM (inactive),> 100 µM (inactive),> 100 µM (inactive),> 100 µM (inactive),> 100 µM (inactive),> 100 µM (inactive),> 100 µM (inactive),> 100 µM (inactive),> 100 µM (inactive),> 100 µM (inactive),> 100 µM (inactive),> 100 µM (inactive),> 100 µM (inactive)
O=C1COc2cccnc2N1CCCCO,> 100 µM (inactive),> 100 µM (inactive),> 100 µM (inactive),> 100 µM (inactive),> 100 µM (inactive),> 100 µM (inactive),> 100 µM (inactive),,> 100 µM (inactive),> 100 µM (inactive),> 100 µM (inactive),,38.1 µM (inactive),> 100 µM (inactive),> 100 µM (inactive),> 100 µM (inactive),> 100 µM (inactive)
CC(=O)C(=N\Nc1ccc(Cl)cc1)/C(C)=N/c1ccc(C)cc1,30.8 µM (inactive),45.7 µM (inactive),44 µM (inactive),32.7 µM (inactive),,23 µM (inactive),> 10 µM (inactive),22.5 µM (inactive),34 µM (inactive),31.9 µM (inactive),29.3 µM (inactive),21.3 µM (inactive),38.5 µM (inactive),28.6 µM (inactive),31.6 µM (inactive),18.4 µM (inactive),21.3 µM (inactive)
COc1ccc2[nH]c3c([N+](=O)[O-])ccc(Cl)c3c(=O)c2c1,47.3 µM (inactive),22.9 µM (inactive),,13.1 µM (inactive),29 µM (inactive),13.6 µM (inactive),26.7 µM (inactive),16.3 µM (inactive),> 43 µM (inactive),21.2 µM (inactive),62.4 µM (inactive),17 µM (inactive),29.2 µM (inactive),22.5 µM (inactive),25.4 µM (inactive),22.1 µM (inactive),44.1 µM (inactive)

# From ChEMBL document CHEMBL1201862, “PubChem BioAssay data set” (2004)
